Test results from patent publication US20230263897A1, “CONJUGATE OF GALNAC AND SAPONIN, […] COMPOSITION COMPRISING SAID CONJUGATE AND A GALNAC-OLIGO[…]” (SAPREME TECHNOLOGIES B.V., priority 2020, published 2023).
pIC50: −log10 of the molar value. [BNANC] = BNA^NC bridged nucleic acid sugar; {ThiolC6} = Thiol C6 linker; d = 2'-deoxy (DNA)

Legend:
ApoB RNA [1] = assay: ApoB RNA expression analysis in liver tissue of C57BL/6J mice; type: in vivo
Experimental: (§1) • Dose administration and in-life phase. Per group, 8 C57BL/6J male mice for treatment groups and 14 in vehicle control group, approximately 6-7 weeks at arrival and 8-9 weeks at dosing, were dosed. The compounds, formulated in PBS or PBS alone (vehicle) according to Table A5, were dosed at 5 ml/kg in the tail vain (intravenously, iv), with dose volumes corresponding to the individual bodyweights. Where applicable, trivalent GalNAc-SO1861-EMCH was co-administered at 5 ml/kg in the tail vain (iv) right after the trivalent GalNAc-ApoB conjugate. Animals were weighed weekly and clinical observations were performed 2-3 times daily within the first 48 hrs, and at least once daily thereafter until study end. • Sampling of serum, liver, and kidney tissue. […] One half of the liver and one kidney was frozen and used for tissue RNA analysis.
The mRNA was isolated from frozen liver tissue using TRzol® Reagent (Thermo Scientific) according to the manufacturer's instruction. Conversion into cDNA was performed using Script™ cDNA Synthesis Kit (BioRad). ApoB expression levels and levels of specific liver housekeeping genes were determined using quantitative real-time PCR assays (qRT-PCR) using iTaq™ Universal SYBR® Green Supermix (BioRad) and the Light Cycler 480 (Roche Diagnostics, Rotkreuz, Switzerland) with specific DNA primers, listed in Table A5. Analysis was done by the ΔCt method to determine ApoB expression relative to 2 liver-specific housekeeping control mRNAs. Each analysis reaction was performed in triplicate.

ApoB RNA [2] = assay: ApoB RNA expression analysis in mouse primary hepatocytes; type: cell-based; details: alone
Source text: Cryopreserved primary mouse hepatocytes ([…] Cell Culture Technology GmbH, Germany) were thawed in hepatocyte thawing media (HTM, […] Cell Culture Technology GmbH, Germany) and washed 1× with hepatocyte wash media (HWM, […] Cell Culture Technology GmbH, Germany). Cells were re-suspended in hepatocyte plating media (HPM Cryo, […] Cell Culture Technology GmbH, Germany) at a density of approx. 0.275×10^6 cells/ml.
RNA from cells was isolated using TRI Reagent® Solution (Thermo Scientific) according to the manufacturer's instruction. Conversion into cDNA was performed using iScript™ cDNA Synthesis Kit (BioRad) using standard protocols. ApoB expression levels and levels of specific hepatocyte housekeeping genes were determined using quantitative real-time PCR assays (qRT-PCR) using iTaq™ Universal SYBR® Green Supermix (BioRad) and the Light Cycler 480 (Roche Diagnostics, Rotkreuz, Switzerland) with specific DNA primers, listed in Table A4. Analysis was done by the ΔCt method to determine ApoB expression relative to 2 hepatocyte-specific housekeeping control mRNAs. Each analysis reaction was performed in triplicate.

[3] = In vivo tolerability (clinical observations, body weight) in C57BL/6J mice; details: doses and dose regimen of Table A5, iv, up to 336 hrs
Experimental: During the study period, ALT levels for vehicle mice ranged from an average 47 to 61 U/L per group (n=6 animals for vehicle).
as §1

LDL-cholesterol = assay: Serum LDL-cholesterol analysis in C57BL/6J mice; type: in vivo
Experimental: as §1
LDL-cholesterol was measured in mouse serum, using an LDL-cholesterol specific two-step AU480 assay kit, respectively, from Beckman Coulter, with a photometric measurement according to the manufacturer's instructions.

ApoB #02: murine and human sequence-compatible ApoB BNA(NC) antisense oligo 5′-GCattggtatTCA-3′ [SEQ ID NO: 12] (antisense GCATTGGTATTCA; sugars from the 5' end [BNANC]2 d8 [BNANC]3, all phosphorothioate, 5' {ThiolC6}, methylation of C not given here)
reduction of liver ApoB RNA levels compared to vehicle (ApoB RNA [1]; 0.1 mg/kg iv alone, 24 hrs): not noticeably reduced
reduction of liver ApoB RNA levels compared to vehicle (ApoB RNA [1]; 1 mg/kg iv alone, 24 hrs): ~15%
reduction of liver ApoB RNA levels compared to vehicle (ApoB RNA [1]; 2 mg/kg iv alone, 24 hrs): ~21%
reduction of liver ApoB RNA levels compared to vehicle (ApoB RNA [1]; 2 mg/kg iv alone, 72 hrs): 39%
reduction of liver ApoB RNA levels compared to vehicle (ApoB RNA [1]; 2 mg/kg iv alone, 336 hrs): 30%
pIC50 (ApoB RNA [2]; 72 hrs, read-out: IC50 ApoB RNA down-modulation): 7.70
fold less potent in ApoB RNA down-modulation than (GalNAc)3-ApoB #02 combined with SO1861-EMCH or (GalNAc)3-SO1861 (ApoB RNA [2]): 100-667 fold
tolerability (clinical observations, adverse findings) [3]: well tolerated
reduction of serum LDL-C compared to vehicle (LDL-cholesterol; 0.1 mg/kg iv alone, 24 hrs): not noticeably reduced
reduction of serum LDL-C compared to vehicle (LDL-cholesterol; 1 mg/kg iv alone, 24 hrs): not noticeably reduced
reduction of serum LDL-C compared to vehicle (LDL-cholesterol; 2 mg/kg iv alone, 24 hrs): not noticeably reduced
reduction of serum LDL-C compared to vehicle (LDL-cholesterol; 2 mg/kg iv alone, 72 hrs): 50%
reduction of serum LDL-C (LDL-cholesterol; 2 mg/kg iv alone, 336 hrs): 40%
